Here are results for 6 molecules from patent publication US11957646B2, “Methods and compositions of stable phenylephrine formulations” (Paragon BioTeck, Inc., priority 2013, dated 2024).

The structures appear in SMILES notation.

For data set [1], the system named is vasopressor effect of (−)-epinephrine, (−)-norepinephrine, and tetraethylammonium. The settings on record: anesthetized rats, infusion of large amount; cited from earlier work.
The nature of data set [2]: Chiral purity by chiral HPLC before and after 6 months storage at 2 to 8° C. The data set is classed as physicochemical. The settings on record: 10% solution. The protocol:
Column-OJ-RH (150×4.6) mm, Flow: 0.6 ml min-1, Mobile Phase: 0.05% Ethylenediamine in Methanol, Column Temp: 25° C.; Detection wavelength: 270 nm. 4.0 mg sample in 1 mL ethanol was analyzed. The injection volume to HPLC is 3.0 μL.
R-Phenylephrine Hydrochloride Opthalmic Solution, 2.5% and 10% prepared as in Example 1 were stored at 2 to 8° C. The chiral purity of Sample 1 (10% solution) was assessed before low temperature stability test.
The chiral purity of R-Phenylephrine Hydrochloride was determined by the method and conditions as shown in Example 3.

The subject of data set [3] is rabbit pupil. As to the kind of experiment: Dilation assay of R and S form phenylephrine solutions on rabbits. The data set is classed as in vivo, NZW rabbits. The settings on record: 10% solution, 3 drops, versus untreated eye. On the procedure:
Two ophthalmic formulations, formulated 10% Phenylephrine hydrochloride (S-isomer) and the exemplary invention composition, 10% Phenylephrine hydrochloride (R-isomer) were tested for their ocular activity in NZW rabbits.
Both R and S form solutions (10% solution prepared as in Example 1) were test for dilation on rabbits. The first test rabbit received 3 drops of the S form formulation and the second test rabbit received 3 drops of the R form solution.

Regarding `CNCC(O)c1ccc(O)c(O)c1` (single isomer, unassigned; (+)) [(+)-epinephrine], in data set [1], the “tachyphylaxis to vasopressor effect” value was “induces tachyphylaxis”. On to `NCC(O)c1ccc(O)c(O)c1` (single isomer, unassigned; (+)) [(+)-norepinephrine], for which the “tachyphylaxis to vasopressor effect” value in data set [1] is reported as “induces tachyphylaxis”.

Consider `CNC[C@H](O)c1cccc(O)c1` [(−)-phenylephrine], for which the “tachyphylaxis to vasopressor effect” value in data set [1] is “induces tachyphylaxis”. As for `CNC[C@H](O)c1cccc(O)c1.Cl` [R-Phenylephrine Hydrochloride, (R)-3-hydroxy-α-[(methylamino)methyl]benzenemethanol hydrochloride], the “chiral purity before storage” value in data set [2] (before low temperature stability test) amounted to 99.3 % ee. Further, the “chiral purity after 6 months storage” value in data set [2] (stored at 2 to 8° C. for 6 months) was found to be 99.3 % ee. Turning to `CNC[C@@H](O)c1cccc(O)c1` [S-Phenylephrine], in data set [1], the “tachyphylaxis to vasopressor effect” value is recorded as “induces tachyphylaxis”. Moreover, the pupil dilation entry in data set [3] was “dilated the eye only slightly more than that was untreated”. Regarding `CNCCc1ccc(O)c(O)c1` [epinine], in data set [1], the “tachyphylaxis to vasopressor effect” value is “induces tachyphylaxis”.
